{"source": "paper PMC11868579", "about": "(Nature Communications, 2024)", "key": {"parent H1299 cells": {"tested_on": "parent H1299 cells", "experiment": "MCL1 and growth in parental H1299 cells", "type": "cell-based, human", "protocol": "Real time monitoring of cell growth was performed with the IncuCyte ZOOM live cell imaging system (Essen BioSciences, USA). Cells were seeded in 96 well plates (Corning, cat#353072) and treated on the next day. The resulting phase-contrast images were analysed using IncuCyte ZOOM 2018A software and results were expressed as percentage confluency of cells.\nAfter seeding overnight in 6 well plates (Corning, cat#353046), cells were treated with compounds for the indicated times and concentration, harvested and the cell pellet lysed on ice in cell lysis buffer (Cell Signaling, cat#9803), supplemented with 1x Halt^TM protease inhibitor cocktail (Fisher Scientific, cat#78429) and cOmplete^TM protease inhibitor cocktail (Sigma-Aldrich, cat#11836153001) for 1 hr. Protein was quantified using BCA protein kit (Fisher Scientific, cat#23225). Western blot was performed using NuPAGE^TM 4–12% Bis-Tris gels (Fisher Scientific, cat#NP0336BOX) and transferred using the Invitrogen iBLOT^TM gel transfer device system (Fisher Scientific, Cat#IB21001). […] All primary antibodies were diluted (1:1000) in 5% BSA (Sigma-Aldrich, cat#A7906) in 1x TBS and 0.1% Tween 20 (Sigma-Aldrich, cat#P1379), except for vinculin (1:2000) that was diluted in casein blocker (Sigma-Aldrich, cat#1610782). […] Quantitative densitometry analysis of protein bands was performed using Image J v1.53 software."}, "SW620 cells": {"tested_on": "SW620 cells", "experiment": "CellTiter-Blue cell viability, SW620", "type": "cell-based, human", "conditions": "SW620, 4 days", "protocol": "Cell viability was measured by CellTiter-Blue® Cell Viability Assay. Cells were seeded in 96 well plates (Corning, cat#353072) and left overnight. Compounds were added at a range of concentrations and plates incubated at 37 °C for 96 hr. Cell titre blue reagent (Promega, Hampshire, UK, cat# G8081) was added (5 μl/well) and incubated for a further 2 h at 37 °C. Fluorescence (579Ex/584Em) was measured using a PHERAstar plate reader.\nSupplementary Fig. 10 Determination of the effects of compound 4 on protein synthesis and viability. a HEK293 cells were transfected with protein synthesis reporter expressing bicistonic mRNA with a cap-dependent luciferase reporter and a cap-independent luciferase driven by a viral IRES. Cells were treated with 1 or 10 µM with compound 4 for 24 hr. Luminescence was measured using the Dual-glo luciferase assay (mean ± SEM from 3 biological replicates). b SW620 cells were transfected with a c-Myc-regulated firefly luciferase expression reporter or a constitutive CMV promoter-regulated renilla luciferase reporter. Cells were treated for 24 hr with 1 or 10 µM compound 4 or the […] kinase inhibitor AZD8055 as positive control (mean ± SEM from 3 biological replicates). […]\nvs 1 µM AZD8055). c Cell viability measured by cell titre blue assay was performed in SW620 cells treated with compound 4 for 4 days (mean ± SEM from 3 biological replicates). […]"}, "[1]": {"type": "physicochemical", "from_the_text": "Chrom kinetic Plasma Caco-2 microsomal\nCmpd Chemical MW LogD solubility protein permeability intrinsic\n# Structure (Da) (pH binding (Papp x10-6 clearance […]\nSupplementary notes Table Physicochemical and in vitro pharmacokinetic properties of compound 4.\nExperimental procedures for the measurement of ChromLogD, aqueous solubility, plasma protein binding, Caco2 permeability and microsomal […]\nDetermination of Chromatographic LogD (ChromLogD7.4)\nChromatographic hydrophobicity index (CHI) values were measured using reversed phase HPLC column (PolymerX RP-1, Phenomenex, UK) with a fast acetonitrile gradient at starting mobile phase of pH = 7.4. CHI values are derived directly from the gradient retention times by using a calibration line obtained for standard compounds.\nThe CHI value approximates to the volume % organic concentration when the compound elutes. CHI is linearly transformed into ChromLogD7.4 by least-square fitting of experimental CHI values to calculated C logP values for over 20,000 research compounds using the following formula: ChromLogD7.4 = 0.0857CHI-2.001.\n(1 picture or pasted object on this page, not shown here)"}, "[2]": {"experiment": "Suppl Fig. 10c, concentration response of Compound 4 (test not named)", "conditions": "3 experiments"}}}
{"smiles": "CC[C@H](C(=O)N1CCCC[C@H]1C(=O)O[C@H](CCc1ccc(OC)c(OC)c1)c1ccccc1OCC(=O)NCCCCCCC(=O)N[C@H](C(=O)N1C[C@H](O)C[C@H]1C(=O)N[C@@H](C)c1ccc(-c2scnc2C)cc1)C(C)(C)C)c1cc(OC)c(OC)c(OC)c1", "note": "[dTAG^V-1]", "values": [{"measurement": "effect on MCL1 or proliferation in parent cells", "setting": "parent H1299 cells", "value": "no effect on MCL1 or proliferation"}]}
{"smiles": "CC[C@H](O[C@H](C)CO)c1ccc(-c2ccccc2F)cc1NCCO", "note": "[Compound 4]", "values": [{"measurement": "antiproliferative activity", "setting": "SW620 cells", "value": "lacked on-target antiproliferative activity"}, {"measurement": "Chrom LogD (pH 7.5)", "setting": "[1]", "value": 4.6}, {"measurement": "Suppl Fig. 10c signal, Average", "setting": "[2]; Conc 0.0398 uM", "value": 107.08}, {"measurement": "Suppl Fig. 10c signal, Average", "setting": "[2]; Conc 0.0794 uM", "value": 87.69}, {"measurement": "Suppl Fig. 10c signal, Average", "setting": "[2]; Conc 0.1585 uM", "value": 100.85}, {"measurement": "Suppl Fig. 10c signal, Average", "setting": "[2]; Conc 0.3126 uM", "value": 97.88}, {"measurement": "Suppl Fig. 10c signal, Average", "setting": "[2]; Conc 0.6252 uM", "value": 95.93}, {"measurement": "Suppl Fig. 10c signal, Average", "setting": "[2]; Conc 1.0000 uM", "value": 93.39}, {"measurement": "Suppl Fig. 10c signal, Average", "setting": "[2]; Conc 1.9999 uM", "value": 114.58}, {"measurement": "Suppl Fig. 10c signal, Average", "setting": "[2]; Conc 3.9994 uM", "value": 94.77}, {"measurement": "Suppl Fig. 10c signal, Average", "setting": "[2]; Conc 10.0000 uM", "value": 126.74}]}
